Assay in all cases: relative viability (nuclei count vs DMSO), 5 days (fraction); higher = more cells survive
Compound in one assay: C=CCNC1=C2C[C@@H](C)C[C@H](OC)[C@H](O)[C@@H](C)/C=C(\C)[C@H](OC(N)=O)[C@@H](OC)/C=C\C=C(/C)C(=O)NC(=CC1=O)C2=O [17-AAG]
A digest of the protocol:
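Hoechst staining, done together with fixation and permeabilisation, marked nuclei for 4× imaging and MetaXpress counting. This followed 5 days without medium change after lung cancer cell lines, kept overnight at 37 °C in 1536-well plates, were pinned with five library-drug doses (not always all listed) spaced by √10 on vehicle-anchored plates. Viability is the ratio of treated-well to vehicle-well nuclei, expressed as a median across plates. Plates passed only at control CV below 25% with at least one doubling.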

Compound in the assay “17-AAG + Trametinib”: C=CCNC1=C2C[C@@H](C)C[C@H](OC)[C@H](O)[C@@H](C)/C=C(\C)[C@H](OC(N)=O)[C@@H](OC)/C=C\C=C(/C)C(=O)NC(=CC1=O)C2=O [17-AAG] + CC(=O)Nc1cccc(-n2c(=O)n(C3CC3)c(=O)c3c(Nc4ccc(I)cc4F)n(C)c(=O)c(C)c32)c1 [Trametinib] (partner 0.02 µM)
A digest of the protocol:
(§1)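 After 5 days of treatment, lung cancer cells in 1536-well plates were fixed and stained in a single step (final 0.05% Triton X-100, 1% formaldehyde, 1 ug/ml Hoechst) and their nuclei counted on 4× images. Treatment had been applied by pin tool the day after seeding as one drug alone or as a fixed anchor-drug dose with five library-drug doses (not always all listed) in √10 steps. Relative viability is the nuclei count of treated wells divided by that of vehicle wells, and values are medians of duplicate plates.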

Compound in the assay “17-AAG + AZD7762”: C=CCNC1=C2C[C@@H](C)C[C@H](OC)[C@H](O)[C@@H](C)/C=C(\C)[C@H](OC(N)=O)[C@@H](OC)/C=C\C=C(/C)C(=O)NC(=CC1=O)C2=O [17-AAG] + NC(=O)Nc1cc(-c2cccc(F)c2)sc1C(=O)N[C@H]1CCCNC1 [AZD7762] (partner 0.2 µM)
A digest of the protocol: as §1

Compound in the assay “17-AAG + Tozasertib”: C=CCNC1=C2C[C@@H](C)C[C@H](OC)[C@H](O)[C@@H](C)/C=C(\C)[C@H](OC(N)=O)[C@@H](OC)/C=C\C=C(/C)C(=O)NC(=CC1=O)C2=O [17-AAG] + Cc1cc(Nc2cc(N3CCN(C)CC3)nc(Sc3ccc(NC(=O)C4CC4)cc3)n2)n[nH]1 [Tozasertib] (partner 0.1 µM)
A digest of the protocol: as §1

As for NCI-H650, the relative viability with 17-AAG (0.00128 µM) was 0.894; with 17-AAG (0.004048 µM) it was 1.01; in the assay with 17-AAG (0.0128 µM), 0.798; with 17-AAG (0.04048 µM), 0.511; with 17-AAG (0.128 µM), 0.264; with 17-AAG + Trametinib (first compound 0.00128 µM), 0.983. In addition, the relative viability with 17-AAG + Trametinib (first compound 0.004048 µM) was 1.03; with 17-AAG + Trametinib (first compound 0.0128 µM), 0.934; with 17-AAG + Trametinib (first compound 0.04048 µM), 0.551; in the assay with 17-AAG + Trametinib (first compound 0.128 µM), 0.224; with 17-AAG + AZD7762 (first compound 0.00128 µM), 0.882; with 17-AAG + AZD7762 (first compound 0.004048 µM) it was 1.11. In addition, the relative viability with 17-AAG + AZD7762 (first compound 0.0128 µM) was 0.63; with 17-AAG + AZD7762 (first compound 0.04048 µM) it was 0.324; with 17-AAG + AZD7762 (first compound 0.128 µM) it was 0.263; with 17-AAG + Tozasertib (first compound 0.00128 µM), 0.698; in the assay with 17-AAG + Tozasertib (first compound 0.004048 µM) it was 0.675; with 17-AAG + Tozasertib (first compound 0.0128 µM), 0.702. For the same cell line, the relative viability with 17-AAG + Tozasertib (first compound 0.04048 µM) is 0.584; with 17-AAG + Tozasertib (first compound 0.128 µM), 0.153.

In the case of NCI-H1651, the relative viability with 17-AAG (0.00128 µM) was determined as 0.955; with 17-AAG (0.004048 µM) it was 0.964; in the assay with 17-AAG (0.0128 µM), 0.945; in the assay with 17-AAG (0.04048 µM), 0.681; with 17-AAG (0.128 µM) it was 0.335; with 17-AAG + Trametinib (first compound 0.00128 µM) it was 0.781. Further, the relative viability with 17-AAG + Trametinib (first compound 0.004048 µM) was 0.855; with 17-AAG + Trametinib (first compound 0.0128 µM), 0.838; in the assay with 17-AAG + Trametinib (first compound 0.04048 µM), 0.77; with 17-AAG + Trametinib (first compound 0.128 µM) it was 0.604; with 17-AAG + AZD7762 (first compound 0.00128 µM), 0.463; in the assay with 17-AAG + AZD7762 (first compound 0.004048 µM), 0.512. For the same cell line, the relative viability in the assay with 17-AAG + AZD7762 (first compound 0.0128 µM) is 0.482; with 17-AAG + AZD7762 (first compound 0.04048 µM) it was 0.364; in the assay with 17-AAG + AZD7762 (first compound 0.128 µM), 0.136; with 17-AAG + Tozasertib (first compound 0.00128 µM) it was 0.778; in the assay with 17-AAG + Tozasertib (first compound 0.004048 µM), 0.667; in the assay with 17-AAG + Tozasertib (first compound 0.0128 µM), 0.612. For the same cell line, the relative viability worked out at 0.302 with 17-AAG + Tozasertib (first compound 0.04048 µM) and 0.14 with 17-AAG + Tozasertib (first compound 0.128 µM).

Turning to NCI-H1734, the relative viability with 17-AAG (0.00128 µM) was found to be 0.98; with 17-AAG (0.004048 µM), 1.02; with 17-AAG (0.0128 µM), 0.839; with 17-AAG (0.04048 µM), 0.284; with 17-AAG (0.128 µM), 0.15; with 17-AAG + Trametinib (first compound 0.00128 µM), 0.759. In addition, the relative viability is 0.633 with 17-AAG + Trametinib (first compound 0.004048 µM); 0.576 with 17-AAG + Trametinib (first compound 0.0128 µM); 0.245 with 17-AAG + Trametinib (first compound 0.04048 µM); 0.15 with 17-AAG + Trametinib (first compound 0.128 µM); 0.547 with 17-AAG + AZD7762 (first compound 0.00128 µM); 0.53 in the assay with 17-AAG + AZD7762 (first compound 0.004048 µM). The relative viability with 17-AAG + AZD7762 (first compound 0.0128 µM) is 0.268; with 17-AAG + AZD7762 (first compound 0.04048 µM), 0.214; with 17-AAG + AZD7762 (first compound 0.128 µM), 0.131; with 17-AAG + Tozasertib (first compound 0.00128 µM), 0.272; in the assay with 17-AAG + Tozasertib (first compound 0.004048 µM) it was 0.293; in the assay with 17-AAG + Tozasertib (first compound 0.0128 µM), 0.224. Further, the results for the relative viability in the assay with 17-AAG + Tozasertib (first compound 0.04048 µM) and with 17-AAG + Tozasertib (first compound 0.128 µM) were 0.161 and 0.125, respectively.

NCI-H322M: the relative viability with 17-AAG (0.00128 µM) was found to be 0.95; in the assay with 17-AAG (0.004048 µM), 0.967; in the assay with 17-AAG (0.0128 µM), 0.483; with 17-AAG (0.04048 µM), 0.346; with 17-AAG (0.128 µM), 0.325; with 17-AAG + Trametinib (first compound 0.00128 µM) it was 0.512. In addition, the relative viability with 17-AAG + Trametinib (first compound 0.004048 µM) was 0.547; in the assay with 17-AAG + Trametinib (first compound 0.0128 µM) it was 0.452; with 17-AAG + Trametinib (first compound 0.04048 µM), 0.536; in the assay with 17-AAG + Trametinib (first compound 0.128 µM), 0.403; with 17-AAG + AZD7762 (first compound 0.00128 µM), 0.633; with 17-AAG + AZD7762 (first compound 0.004048 µM), 0.415. Further, the relative viability came to 0.405 with 17-AAG + AZD7762 (first compound 0.0128 µM); 0.382 with 17-AAG + AZD7762 (first compound 0.04048 µM); 0.413 in the assay with 17-AAG + AZD7762 (first compound 0.128 µM); 0.478 with 17-AAG + Tozasertib (first compound 0.00128 µM); 0.443 with 17-AAG + Tozasertib (first compound 0.004048 µM); 0.337 with 17-AAG + Tozasertib (first compound 0.0128 µM). In addition, the relative viability is 0.316 with 17-AAG + Tozasertib (first compound 0.04048 µM) and 0.325 with 17-AAG + Tozasertib (first compound 0.128 µM).

For the cell line CAL-12T, the relative viability with 17-AAG (0.00128 µM) stood at 0.947; in the assay with 17-AAG (0.004048 µM) it was 1.02; with 17-AAG (0.0128 µM), 0.948; with 17-AAG (0.04048 µM), 0.625; in the assay with 17-AAG (0.128 µM), 0.24; with 17-AAG + Trametinib (first compound 0.00128 µM), 0.394. The relative viability with 17-AAG + Trametinib (first compound 0.004048 µM) is 0.352; with 17-AAG + Trametinib (first compound 0.0128 µM), 0.319; with 17-AAG + Trametinib (first compound 0.04048 µM) it was 0.308; with 17-AAG + Trametinib (first compound 0.128 µM), 0.146; with 17-AAG + AZD7762 (first compound 0.00128 µM), 0.655; in the assay with 17-AAG + AZD7762 (first compound 0.004048 µM) it was 0.553. Also, the relative viability in the assay with 17-AAG + AZD7762 (first compound 0.0128 µM) turned out to be 0.608; with 17-AAG + AZD7762 (first compound 0.04048 µM) it was 0.393; in the assay with 17-AAG + AZD7762 (first compound 0.128 µM), 0.233; with 17-AAG + Tozasertib (first compound 0.00128 µM) it was 0.328; in the assay with 17-AAG + Tozasertib (first compound 0.004048 µM) it was 0.24; with 17-AAG + Tozasertib (first compound 0.0128 µM), 0.375. Besides, the relative viability with 17-AAG + Tozasertib (first compound 0.04048 µM) came to 0.314; in the assay with 17-AAG + Tozasertib (first compound 0.128 µM) it was 0.153.

With HCC-78, the relative viability with 17-AAG (0.00128 µM) was found to be 0.935; with 17-AAG (0.004048 µM) it was 1.02; with 17-AAG (0.0128 µM), 1.01; with 17-AAG (0.04048 µM), 0.727; with 17-AAG (0.128 µM), 0.425; with 17-AAG + Trametinib (first compound 0.00128 µM) it was 0.744. The relative viability with 17-AAG + Trametinib (first compound 0.004048 µM) was 0.593; in the assay with 17-AAG + Trametinib (first compound 0.0128 µM), 0.71; with 17-AAG + Trametinib (first compound 0.04048 µM), 0.663; with 17-AAG + Trametinib (first compound 0.128 µM) it was 0.359; with 17-AAG + AZD7762 (first compound 0.00128 µM) it was 0.599; with 17-AAG + AZD7762 (first compound 0.004048 µM) it was 0.821. Further, the relative viability stood at 0.666 in the assay with 17-AAG + AZD7762 (first compound 0.0128 µM); 0.155 with 17-AAG + AZD7762 (first compound 0.04048 µM); 0.352 in the assay with 17-AAG + AZD7762 (first compound 0.128 µM); 0.443 with 17-AAG + Tozasertib (first compound 0.00128 µM); 0.401 with 17-AAG + Tozasertib (first compound 0.004048 µM); 0.418 in the assay with 17-AAG + Tozasertib (first compound 0.0128 µM). The values for the relative viability with 17-AAG + Tozasertib (first compound 0.04048 µM) and with 17-AAG + Tozasertib (first compound 0.128 µM) were 0.637 and 0.223, respectively.

In the case of NCI-H2085, the relative viability was determined as 0.994 in the assay with 17-AAG (0.00128 µM); 0.95 with 17-AAG (0.004048 µM); 0.99 with 17-AAG (0.0128 µM); 0.919 with 17-AAG (0.04048 µM); 0.76 with 17-AAG (0.128 µM); 0.608 with 17-AAG + Trametinib (first compound 0.00128 µM). The relative viability in the assay with 17-AAG + Trametinib (first compound 0.004048 µM) was found to be 0.607; with 17-AAG + Trametinib (first compound 0.0128 µM), 0.604; with 17-AAG + Trametinib (first compound 0.04048 µM) it was 0.594; with 17-AAG + Trametinib (first compound 0.128 µM), 0.314; with 17-AAG + AZD7762 (first compound 0.00128 µM), 0.983; with 17-AAG + AZD7762 (first compound 0.004048 µM), 1.02. In addition, the relative viability in the assay with 17-AAG + AZD7762 (first compound 0.0128 µM) was 1; in the assay with 17-AAG + AZD7762 (first compound 0.04048 µM), 1; with 17-AAG + AZD7762 (first compound 0.128 µM), 0.551; in the assay with 17-AAG + Tozasertib (first compound 0.00128 µM), 0.798; with 17-AAG + Tozasertib (first compound 0.004048 µM), 0.673; with 17-AAG + Tozasertib (first compound 0.0128 µM), 0.71. Further, the relative viability was found to be 0.799 with 17-AAG + Tozasertib (first compound 0.04048 µM) and 0.679 with 17-AAG + Tozasertib (first compound 0.128 µM).

The values are drawn from the supplement of paper PMC10307832.
